Patent publication US20070060636A1, “High enantiomeric purity dexanabinol for pharmaceutical compositions” (priority 2002, published 2007)
Where two headings read alike, the source gives them in different places.

Columns and labels:
[1] = test system: inflammatory bowel disease (IBD) model; experiment: IBD induced by rectal 5% acetic acid solution; format: in vivo, Sprague Dawley male rats
Protocol: The pharmacological activity of dexanabinol of high enantiomeric purity in enema formulation was also tested and compared to oral and i.p. formulations, wherein oral delivery was performed using a hard gelatin capsule and i.p. delivery was performed using the CREMOPHOR EL®:ethanol formulation. IBD was induced in Sprague Dawley male rats, by rectal administration of a 5% acetic acid solution. The rectum was then washed with saline and animals were clinically observed (body weight, stool consistency and blood in stool) daily for 7 days. On the eighth day, the animals were sacrificed, their colon opened and gross pathology lesions were recorded (hyperemia, edema, number of erosions, ulcers, perforations and adhesions). Animals, at least six per group, were treated rectally (by enema) with either dexanabinol (5, 10, 20 or 40 mg/kg/day) or its vehicle or by oral gavage (20, 40, or 80 mg/kg/day or vehicle). Administration of acetic acid caused a decrease in body weight (up to 20%), changes in stool consistency (diarrhea) and appearance of blood in the stool 24 hours later. Spontaneous clinical healing was detected as animals regained weight and blood was no more evident in the stool. In the gross pathology scale, rectal dexanabinol 10 mg/kg had the best effect (more than 50% reduction of score) compared to its vehicle (p<0.05). […] The rectal dexanabinol dose of 10 mg/kg was pharmacologically equivalent to 20 mg/kg i.p. dose and 80 mg/kg oral dose.

[2] = 2nd Phase I study, single i.v. dose 48 or 150 mg, healthy male volunteers; format: in vivo, human; settings: for AUC∞/Dose: normalized for dose (mg/kg); for clearance / Cmax / MRT / AUC / AUC(0-inf) / half-life / Vd: male, human, plasma; for Vd: read-out: Vss
Protocol: Pharmacokinetic parameters were estimated by a non-compartmental method using WinNonlin Professional version 3.2 (Pharsight Corp., Mountain View, Calif.). The maximum plasma concentration (Cmax), when the drug is administered by infusion, is the concentration at the end of infusion. The Cmax following intravenous bolus administration is the value estimated by the software to be the concentration at t=0. The terminal slope (X) was estimated by linear regression through the last time points and used to calculate the terminal half-life (t1/2) from the following equation: t1/2=0.693/λ The area under the curve from time of dosing through the last time point (AUCz) was calculated by the linear trapezoid method. The AUC extrapolated to infinity (AUC∞) was calculated from the following equation: AUC∞=AUCz+Cz/λ where Cz is the concentration at the last time point predicted by the linear regression. AUC∞ was normalized for dose (mg/kg) and presented as AUC∞/Dose. Mean residence time (MRT), when the drug is administered by infusion is described by the following equation: MRT=(AUMC/AUC)−(TI)/2 Mean residence time after i.v. bolus administration is described by the following equation: MRT=(AUMC/AUC) where AUMC is the area under the first moment curve and TI is the length of infusion. Plasma clearance (CL), and the apparent volume of distribution at steady state (Vss) were calculated from the following equations: CL=Dose/AUC∞ Vss=MRT×CL
A second human Phase I study involving 24 healthy male volunteers was carried out to compare the pharmacokinetics of dexanabinol following a single i.v. dose of 48 mg or 150 mg. The subjects were divided into two groups of 12 subjects each. Each group was premedicated with ATOSIL® 25 mg (Promethazine H1 blocker), and ZANTAC® 50 mg (Ranitidine H2 blocker) intravenously, followed 15 minutes later by a single short intravenous infusion of dexanabinol lasting 15 minutes. Blood samples for pharmacokinetic assays for dexanabinol were collected immediately before premedication (T=0), immediately after dosing (T=0+) (at the end of the infusion), at 5, 10, 20, 30, 45, and 60 min, and 2, 4, 6, 8, 12, 16, 24, 48, 72 and 96 hr post-dosing. Blood was also collected from four subjects from group 2 ([…]) on Days 6, 10 and 14. For both dose levels, initial rapid declines in plasma concentration followed by a progressively slower decline were observed.
Pharmacokinetic parameters were estimated by non-compartmental methods up to 96 hr post-infusion, using WinNonlin Professional version 3.2 (Pharsight Corp., Mountain View, Calif., USA).

[3] = in vivo; cited from earlier work
[4] = human Phase I, 150 mg single i.v., reference itself
[5] = iv, 48 mg single i.v. infusion, healthy volunteers, mean ± SE
[6] = iv, 48 mg single i.v. infusion, healthy volunteers, mean ± SE, up to 96 hr
[7] = iv, 150 mg single i.v. infusion, healthy volunteers, mean ± SE
[8] = iv, 150 mg single i.v. infusion, healthy volunteers, mean ± SE, up to 96 hr

CCCCCCC(C)(C)c1cc(O)c2c(c1)OC(C)(C)[C@H]1CC=C(CO)C[C@H]21 [dexanabinol, 1,1-dimethylheptyl-(3S,4S)-7-hydroxy-Δ^6-tetrahydrocannabinol]
i.p. dose pharmacologically equivalent to rectal dose of 10 mg/kg ([1]; i.p., CREMOPHOR EL:ethanol formulation): 20 mg/kg | oral dose pharmacologically equivalent to rectal dose of 10 mg/kg ([1]; oral): 80 mg/kg | clinical disease severity compared to the vehicle ([1]; rectal 10 mg/kg): reduced also the clinical disease severity | reduction of gross pathology score compared to vehicle ([1]; rectal (enema) 10 mg/kg, p<0.05): more than 50% | 30 min plasma values as % of the end of infusion levels ([2]; 48 mg and 150 mg): about 11% | AUC∞/Dose ([2]; 48 mg single i.v. infusion, healthy volunteers, mean ± SE): 78,137 ± 4,305 ng × min/ml | AUC∞/Dose ([2]; 150 mg single i.v. infusion, healthy volunteers, mean ± SE): 93,408 ± 4,224 ng × min/ml | AUC∞ Ratio to Phase I [2, 4]: 1.0 | Cmax Ratio to Phase I [2, 4]: 1.0 | clearance ([2]; intravenous, 48 mg and 150 mg, read-out: Total plasma clearance (CL), average across the two dose groups): 12 mL/min/kg | Cmax ([2]; intravenous, after the 48 mg dose (0.63 mg/kg), read-out: Maximum plasma concentrations (Cmax)): 1230 ng/mL | Cmax ([2]; intravenous, at 150 mg (2.05 mg/kg), read-out: Maximum plasma concentrations (Cmax)): 5000 ng/mL | MRT [2, 5]: 8.4 ± 0.5 h | AUC [2, 6]: 811 ng·h/mL | AUC(0-inf) [2, 6]: 824 ng·h/mL | half-life [2, 6]: 31.2 ± 3.6 h | Cmax ([2]; iv, 48 mg single i.v. infusion, healthy volunteers, mean ± SE, up to 96 hr, read-out: Cmax): 1230 ng/mL | clearance ([2]; iv, 48 mg single i.v. infusion, healthy volunteers, mean ± SE, read-out: CL): 13.2 ± 0.7 mL/min/kg | Vd [2, 5]: 6.6 ± 0.5 L/kg | MRT [2, 7]: 6.9 ± 0.4 h | AUC [2, 8]: 3180 ng·h/mL | AUC(0-inf) [2, 8]: 3210 ng·h/mL | half-life [2, 8]: 23.4 ± 1.8 h | Cmax ([2]; iv, 150 mg single i.v. infusion, healthy volunteers, mean ± SE, up to 96 hr, read-out: Cmax): 5010 ng/mL | clearance ([2]; iv, 150 mg single i.v. infusion, healthy volunteers, mean ± SE, read-out: CL): 10.9 ± 0.5 mL/min/kg | Vd [2, 7]: 4.5 ± 0.4 L/kg | safety in human subjects ([2]; the two phase I studies): safe, well tolerated and no psychomimetic side effects were detected | cardiovascular effects [3]: devoid of cardiovascular effects
